Results on 18 compounds are retold here after paper PMC8876412 (Viruses, 2022).

Data set [1] relates to Western Equine Encephalitis Virus (WEEV). As to conditions: cultured human neuronal cells; cited from earlier work.
Data set [2] has as its system pp28-luciferase recombinant Towne CMV. In words: microbe, parasite or virus in culture. As to conditions: Human betaherpesvirus 5, read-out: EC50 pp28-Luciferase.
The subject of data set [3] is HSV2. Also noted: method as in ref 24 = [24]. The following applies: cited from earlier work.
For data set [4], the system named is HSV1. Also noted: method as in ref 24 = [24]. The following applies: cited from earlier work.
The nature of data set [5]: MTT toxicity assay in non-infected cells. The following applies: human, non-infected HFF cells, non-infected HFFs. Type of data set: cell-based.
The subject of data set [6] is MCMV Smith strain. Further details: method as in ref 24 = [24]. As to conditions: cited from earlier work.
The subject of data set [7] is CMV TB40. Also noted: method as in ref 24 = [24]. The following applies: cited from earlier work.
Another data set deals with CMV TB40 (US17 DNA). In words: Viral DNA in cells and supernatants by US17 real-time PCR. As to conditions: for cellular viral loads (viral DNA replication in cells): 72, 96, 120 h. Type of data set: cell-based, human cytomegalovirus.
The test system of data set [8] is CMV TB40. In words: microbe, parasite or virus in culture. It is filed as cell-based, human cytomegalovirus. The following applies: Human betaherpesvirus 5, 168 h, read-out: EC50 TB40.
The test system of data set [9] is CMV TB40. In words: Virus yield: supernatants of TB40-infected HFFs titered by plaque assay. It is filed as cell-based, human cytomegalovirus. The following applies: supernatants at 72, 96, 120 h; for reduction in viral titer (virus yield) of supernatants: 3 µM.
For data set [10], the system named is MCMV Smith strain. In words: microbe, parasite or virus in culture. It is filed as cell-based. As to conditions: Mouse cytomegalovirus, Fibroblast, read-out: EC50 MCMV.
Data set [11] deals with pp28-luciferase recombinant Towne CMV. As to conditions: CC50 in non-infected HFFs versus anti-CMV EC50.
The subject of data set [12] is HSV2. In words: HSV2 plaque assay in Vero cells. It is filed as cell-based, Human Herpesvirus 2. As to conditions: 5 µM, positive control.
Data set [13] concerns HSV1. In words: HSV1 plaque assay in Vero cells. Type of data set: cell-based, Human Herpesvirus 1. As to conditions: 5 µM, positive control.
Another data set concerns CMV. Also noted: method as in ref 23 = [23]. As to conditions: cited from earlier work.

Entries after “also recorded” stand apart in the source; their conditions may differ.

Take `O=C(NCCc1ccncc1)C1CCN(C(=O)c2cc3ccccc3n2Cc2ccc(Cl)cc2)CC1` [CCG205432]: the “inhibition of infectious virus” value in data set [1] is “inhibited the infectious virus”.
For the compound `CC(C)NC(=O)C1CCN(C(=O)c2cc3sccc3n2Cc2ccc(Cl)cc2)CC1` [Compound 1], the EC50 came to 1700 ± 600 nM in [2] and 1990 ± 150 nM in the data set with CMV TB40 [8]. Further, the “activity against HSV2” value in the data set with HSV2 [3] is on record as “no activity”. Besides, in the data set on HSV1 [4], the “activity against HSV1” value is recorded as “no activity”. Also, the CC50 at 72 h in [5] was > 200000 nM. In the data set on MCMV Smith strain [6], the “in vitro activity against mouse CMV” value was “low µM concentrations”. Further, in the data set on CMV TB40 [7], the “in vitro activity against TB40” value is reported as “low µM concentrations”. Also, the “cellular viral loads (viral DNA replication in cells)” value (“cellular viral loads” for short) in the data set on CMV TB40 (US17 DNA) (3 µM) is reported as “did not reduce”.
`CC(C)NC(=O)C1CCCN(C(=O)c2cc3sccc3n2Cc2ccc(Cl)cc2)C1` (centres unmarked) [Compound 2]: the EC50 in data set [2] was > 30000 nM.
Still for that read-out and setting: next, `CC(C)NC(=O)C1CCN(C(=O)c2cc3ccccc3n2Cc2ccc(Cl)cc2)CC1` [Compound 3]: > 30000 nM.
Still for that read-out and setting: next, `CC(C)NC(=O)C1CCN(C(=O)c2cccn2Cc2ccc(Cl)cc2)CC1` [Compound 4]: > 30000 nM.
`O=C(NCCc1ccccn1)C1CCN(C(=O)c2cccn2Cc2ccc(Cl)cc2)CC1` [Compound 5]: in [2], the EC50 was > 30000 nM.
`O=C(NCCc1cccnc1)C1CCN(C(=O)c2cccn2Cc2ccc(Cl)cc2)CC1` [Compound 6]: the EC50 in [2] was > 30000 nM.
Regarding `O=C(NCCc1ccncc1)C1CCN(C(=O)c2cccn2Cc2ccc(Cl)cc2)CC1` [Compound 7], the “reduction in viral titer (virus yield) of supernatants” value in the data set on CMV TB40 [9] is “reduced virus yield at all late time points; also recorded: higher than with 1 and overall similar to GCV”. The concentration for a half-maximal effect (EC50) in the data set with MCMV Smith strain [10] amounted to 600 ± 340 nM; in data set [2] it was 210 ± 60 nM; in the data set on CMV TB40 [8], 550 ± 60 nM. In addition, the selectivity index in [11] is > 1500. In addition, the CC50 at 72 h in data set [5] is > 500000 nM. Moreover, the “viral loads in supernatants” value in the data set with CMV TB40 (US17 DNA) (3 µM, 72, 96, 120 hpi) is “decreased the viral loads in supernatants at all time points”. Further, in the data set with CMV TB40 (US17 DNA) (3 µM), the “cellular viral loads” value is recorded as “did not reduce”.
As for `O=C(NCCc1ccncc1)C1CCN(C(=O)c2cc3ccccc3n2Cc2ccc(Cl)cc2)CC1` [Compound 8], the “reduction in viral titer (virus yield) of supernatants” value with CMV TB40 [9] was “higher than with 1 and overall similar to GCV”. For the same compound, the EC50 with MCMV Smith strain [10] was 730 ± 320 nM; in data set [2] it was 280 ± 60 nM; with CMV TB40 [8], 420 ± 70 nM. For the same compound, the selectivity index in data set [11] is given as > 1500. Further, the CC50 at 72 h in [5] is > 500000 nM. Moreover, the “viral loads in supernatants” value with CMV TB40 (US17 DNA) (3 µM, 72, 96, 120 hpi) was “decreased viral loads at 120 hpi”. In addition, in the data set with CMV TB40 (US17 DNA) (3 µM), the “cellular viral loads” value is “did not reduce”.
With `O=C(NCCc1ccncc1)C1CCN(C(=O)c2cc3sccc3n2Cc2ccc(Cl)cc2)CC1` [Compound 9], the EC50 was 300 ± 50 nM in data set [2] and 350 ± 70 nM with CMV TB40 [8]. In addition, the selectivity index in data set [11] is recorded as > 1500. The CC50 at 72 h in data set [5] was > 500000 nM.
Consider `O=C(NCc1ccccn1)C1CCN(C(=O)c2cccn2Cc2ccc(Cl)cc2)CC1` [Compound 10], for which, in data set [2], the EC50 is > 30000 nM.
Consider `O=C(NCc1cccnc1)C1CCN(C(=O)c2cccn2Cc2ccc(Cl)cc2)CC1` [Compound 11], for which the EC50 in data set [2] is > 30000 nM.
Still for that read-out and setting: next, `O=C(NCc1ccncc1)C1CCN(C(=O)c2cccn2Cc2ccc(Cl)cc2)CC1` [Compound 12]: > 30000 nM; `O=C(O)C1CCN(C(=O)c2cccn2Cc2ccc(Cl)cc2)CC1` [Compound 13]: > 30000 nM.
Still for that read-out and setting: under `CCOC(=O)C1CCN(C(=O)c2cccn2Cc2ccc(Cl)cc2)CC1` [Compound 14] stands > 30000 nM.
Turning to `Nc1nc(O)c2ncn(COC(CO)CO)c2n1` [GCV, ganciclovir, reference compound], in the data set on HSV2 [12], the “inhibition of HSV2” value was “complete inhibition”. In the data set with HSV1 [13], the “inhibition of HSV1” value is “complete inhibition”. In the data set on CMV TB40 (US17 DNA) (5 µM), the “viral DNA in supernatants” value was “reduced DNA replication” and the “viral DNA replication in cells” value was “reduced DNA replication”.
Turning to `COc1cccc(N2CCN(C3=Nc4c(F)cccc4[C@H](CC(=O)O)N3c3cc(C(F)(F)F)ccc3OC)CC2)c1` [Letermovir, reference compound], the “reduction in viral progeny of supernatants” value in the data set with CMV TB40 [9] (10 nM) is on record as “strongest reduction in viral progeny at all time points”. Moreover, the “viral loads in supernatants” value with CMV TB40 (US17 DNA) (10 nM) is “reduced viral loads in supernatants”.
In the case of `CC(C)Nc1nc2cc(Cl)c(Cl)cc2n1[C@H]1O[C@@H](CO)[C@H](O)[C@@H]1O` [maribavir, Maribavir], in the data set with CMV (across all doses), the response is on record as ~ 65%. Moreover, the CMV recurrences in the data set on CMV (of the participants) was 35%.
